# Test results published in US10696693B2, “Fused imidazole derivatives as TGF-beta inhibitors” (Rigel Pharmaceuticals, Inc., priority 2014, dated 2020).
# Like-named read-outs stand apart in the source and are kept apart here.
# What was measured:
# TGF-β = experiment: AlphaScreen SureFire p-SMAD3 (Ser423/425) assay, TGF-β-stimulated cells; format: cell-based; conditions: Mus musculus
# In short: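 The p-SMAD-3 (Ser423/425) SureFire assay measured phosphorylation of endogenous SMAD-3 in cell lysates. Cells were plated overnight in collagen-coated plates, exposed to three-fold serially diluted compounds for about 10 minutes, then stimulated with TGFβ. Lysates (5 μL) received acceptor bead mix for 2 hours, then donor beads for 1½ hours before AlphaScreen reading.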
# GDF8 = experiment: AlphaScreen SureFire p-SMAD3 (Ser423/425) assay, GDF8-stimulated cells; format: cell-based; conditions: Mus musculus
# In short: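 Lysate (5 μL) went into 384-well shallow plates with 5 μL of Reaction Buffer, Activation Buffer and AlphaScreen Acceptor bead mix. Plates were sealed, kept dark and shaken for 2 hours at room temperature. Donor beads in dilution buffer (2 μL) were added for another 1½ hours, and p-SMAD3 signal was read on a Synergy-4 or Enspire reader.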
# [1] = p-SMAD3 (Ser423/425) AlphaScreen in cell lysate, MPC-11, TGF-β stimulation, read-out: TGF-β: inhibition of TGF-β signaling, TGF-β pSMAD (MPC-11)
# [2] = MPC-11, p-SMAD3 (Ser423/425) AlphaScreen in cell lysate, MPC11, GDF8 stimulation, read-out: GDF8: inhibition of GDF8 signaling, GDF pSMAD (MPC11)
# [3] = MPC-11, read-out: TGF-β: inhibition of TGF-β signaling, TGF-β pSMAD (MPC-11), p-SMAD3 (Ser423/425) AlphaScreen in cell lysate, TGF-β stimulation
# [4] = MPC-11, read-out: GDF8: inhibition of GDF8 signaling, GDF pSMAD (MPC11), p-SMAD3 (Ser423/425) AlphaScreen in cell lysate, GDF8 stimulation
Structure (SMILES),IC50 (TGF-β; [1]),IC50 (GDF8; [2]),IC50 (TGF-β; [3]),IC50 (GDF8; [4])
"Cc1cc(-c2nc3n(c2-c2ccc4[nH]ncc4c2)CCC3)cc(Cl)c1F [Compound 272, 5-(2-(3-chloro-4-fluoro-5-methylphenyl)-6,7-dihydro-5H-pyrrolo[1,2-a]imidazol-3-yl)-1H-indazole]",> 1000 nM,> 1000 nM,–,–
"COCCOc1cnc2ccc(-c3c(-c4cc(C)ccc4F)nc4n3CCC4)cc2n1 [Compound 358, 7-(2-(2-fluoro-5-methylphenyl)-6,7-dihydro-5H-pyrrolo[1,2-a]imidazol-3-yl)-2-(2-methoxyethoxy)quinoxaline]",–,–,100 to 1000 nM,100 to 1000 nM
"COc1c(C)cc(-c2nc3n(c2-c2ccc4ncnn4c2)CCC3)cc1C [Compound 30, 6-(2-(4-methoxy-3,5-dimethylphenyl)-6,7-dihydro-5H-pyrrolo[1,2-a]imidazol-3-yl)-[1,2,4]triazolo[1,5-a]pyridine]",> 1000 nM,> 1000 nM,–,–
"Fc1cccc(-c2nc3n(c2-c2ccc4ncccc4c2)CCC3)c1 [Compound 209, 6-(2-(3-fluorophenyl)-6,7-dihydro-5H-pyrrolo[1,2-a]imidazol-3-yl)quinoline]",> 1000 nM,100 to 1000 nM,–,–
"Cc1cc(-c2nc3n(c2-c2ccc4ncsc4c2)CCC3)c(C)cc1F [Compound 309, 6-(2-(4-fluoro-2,5-dimethylphenyl)-6,7-dihydro-5H-pyrrolo[1,2-a]imidazol-3-yl)benzo[d]thiazole]",–,–,100 to 1000 nM,100 to 1000 nM
"Clc1cccc(-c2nc3n(c2-c2ccc4nccnc4c2)CCC3)c1 [Compound 192, 6-(2-(3-chlorophenyl)-6,7-dihydro-5H-pyrrolo[1,2-a]imidazol-3-yl)quinoxaline]",–,–,100 to 1000 nM,50 to 100 nM
"Cc1ccccc1-c1nc2n(c1-c1ccc3ncccc3c1)CCC2 [Compound 307, 6-(2-(o-tolyl)-6,7-dihydro-5H-pyrrolo[1,2-a]imidazol-3-yl)quinoline]",> 1000 nM,> 1000 nM,–,–
"Cc1cc(-c2nc3n(c2-c2ccc4nccnc4c2)CCC3)c(F)cc1F [Compound 270, 6-(2-(2,4-difluoro-5-methylphenyl)-6,7-dihydro-5H-pyrrolo[1,2-a]imidazol-3-yl)quinoxaline]",50 to 100 nM,< 50 nM,–,–
"OCC1CCC2(CC1)Cc1nc(-c3ccc(F)cc3)c(-c3ccc4nccnc4c3)n1C2 (stereo not shown) [Compound 336, (2′-(4-fluorophenyl)-3′-(quinoxalin-6-yl)-5′H,7′H-spiro[cyclohexane-1,6′-pyrrolo[1,2-a]imidazol]-4-yl)methanol]",–,–,> 1000 nM,> 1000 nM
"Fc1cc(-c2nc3n(c2-c2ccc4[nH]ncc4c2)CCC3)cc(F)c1F [Compound 228, 5-(2-(3,4,5-trifluorophenyl)-6,7-dihydro-5H-pyrrolo[1,2-a]imidazol-3-yl)-1H-indazole]",–,–,100 to 1000 nM,100 to 1000 nM
"Cc1cc(F)c(Cl)cc1-c1nc2n(c1-c1ccc3nccn3c1)CCC2 [Compound 57, 6-(2-(5-chloro-4-fluoro-2-methylphenyl)-6,7-dihydro-5H-pyrrolo[1,2-a]imidazol-3-yl)imidazo[1,2-a]pyridine]",100 to 1000 nM,100 to 1000 nM,–,–
"Cc1ccccc1-c1nc2n(c1-c1ccc3nccnc3c1)CCC2 [Compound 306, 6-(2-(o-tolyl)-6,7-dihydro-5H-pyrrolo[1,2-a]imidazol-3-yl)quinoxaline]",> 1000 nM,> 1000 nM,–,–
Cc1cc(F)c(F)cc1-c1nc2n(c1-c1ccc3nccn3c1)CCC2 [Compound 32],> 1000 nM,100 to 1000 nM,–,–
"Fc1ccc(-c2nc3n(c2-c2ccc4nccnc4c2)CCC3)cc1F [Compound 208, 6-(2-(3,4-difluorophenyl)-6,7-dihydro-5H-pyrrolo[1,2-a]imidazol-3-yl)quinoxaline]",> 1000 nM,100 to 1000 nM,–,–
"Cc1c(F)ccc(-c2nc3n(c2-c2ccc4ncnn4c2)CCC3)c1Cl [Compound 66, 6-(2-(2-chloro-4-fluoro-3-methylphenyl)-6,7-dihydro-5H-pyrrolo[1,2-a]imidazol-3-yl)-[1,2,4]triazolo[1,5-a]pyridine]",> 1000 nM,100 to 1000 nM,–,–
"Fc1cccc(-c2nc3n(c2-c2ccc4ncsc4c2)CCC3)c1 [Compound 195, 6-(2-(3-fluorophenyl)-6,7-dihydro-5H-pyrrolo[1,2-a]imidazol-3-yl)benzo[d]thiazole]",–,–,100 to 1000 nM,100 to 1000 nM
"COc1cccc(-c2nc3n(c2-c2ccc4ncsc4c2)CCC3)c1 [Compound 187, 6-(2-(3-methoxyphenyl)-6,7-dihydro-5H-pyrrolo[1,2-a]imidazol-3-yl)benzo[d]thiazole]",–,–,100 to 1000 nM,50 to 100 nM
Cc1ccc(F)cc1-c1nc2n(c1-c1ccc3ncccc3c1)CCC2 [Compound 303],> 1000 nM,> 1000 nM,–,–
"Fc1cc(F)c(-c2nc3occn3c2-c2ccc3cn[nH]c3c2)cc1F [Compound 147, 6-(2,4,5-trifluorophenyl)-5-(1H-indazol-6-yl)imidazo[2,1-b]oxazole]",50 to 100 nM,< 50 nM,–,–
"Cc1ccccc1-c1nc2n(c1-c1ccc3ncnn3c1)CCC2 [Compound 62, 6-(2-(2-methylphenyl)-6,7-dihydro-5H-pyrrolo[1,2-a]imidazol-3-yl)-[1,2,4]triazolo[1,5-a]pyridine]",–,–,> 1000 nM,> 1000 nM

# The next lines start with results.
IC50 (TGF-β; [1]),IC50 (GDF8; [2]),Structure (SMILES),IC50 (TGF-β; [3]),IC50 (GDF8; [4])
> 1000 nM,> 1000 nM,"Fc1ccc(-c2cn3ccoc3n2)cc1F [Compound 131, 6-(3,4-difluorophenyl)imidazo[2,1-b]oxazole]",–,–
< 50 nM,< 50 nM,"Fc1ccc(Cl)cc1-c1nc2n(c1-c1ccc3ncccc3c1)CCC2 [Compound 338, 6-(2-(5-chloro-2-fluoropheny)-6,7-dihydro-5H-pyrrolo[1,2-a]imidazol-3-yl)quinoline]",–,–
> 1000 nM,> 1000 nM,"Cc1ccccc1-c1nc2n(c1-c1ccc3nccn3c1)CCC2 [Compound 63, 6-(2-(2-methylphenyl)-6,7-dihydro-5H-pyrrolo[1,2-a]imidazol-3-yl)imidazo[1,2-a]pyridine]",–,–
> 1000 nM,> 1000 nM,Fc1ccc(-c2nc3n(c2-c2ccc4nnc(C(F)(F)F)n4c2)CCC3)c(F)c1F [Compound 35],–,–
100 to 1000 nM,50 to 100 nM,"OCC1Cn2c(nc(-c3cc(F)cc(F)c3F)c2-c2ccc3ncccc3c2)N1 (stereo not shown) [Compound 123, (5-(quinolin-6-yl)-6-(2,3,5-trifluorophenyl)-2,3-dihydro-1H-imidazo[1,2-a]imidazol-2-yl)methanol]",–,–
100 to 1000 nM,< 50 nM,"Fc1cc(F)c(-c2nc3n(c2-c2ccc4nccnc4c2)CCC3)cc1F [Compound 219, 6-(2-(2,4,5-trifluorophenyl)-6,7-dihydro-5H-pyrrolo[1,2-a]imidazol-3-yl)quinoxaline]",–,–
100 to 1000 nM,< 50 nM,"Fc1ccc(-c2nc3n(c2-c2ccc4ncsc4c2)CCC3)c(F)c1 [Compound 203, 6-(2-(2,4-difluorophenyl)-6,7-dihydro-5H-pyrrolo[1,2-a]imidazol-3-yl)benzo[d]thiazole]",–,–
> 1000 nM,> 1000 nM,"Cc1cc(-c2nc3n(c2-c2ccc4ncsc4c2)CCC3)c(F)cc1Cl [Compound 253, 6-(2-(4-chloro-2-fluoro-5-methylpheny)-6,7-dihydro-5H-pyrrolo[1,2-a]imidazol-3-yl)benzo[d]thiazole]",–,–
50 to 100 nM,< 50 nM,"Cc1cc(-c2nc3n(c2-c2ccc4nccn4c2)CCC3)c(F)cc1F [Compound 39, 6-(2-(2,4-difluoro-5-methylphenyl)-6,7-dihydro-5H-pyrrolo[1,2-a]imidazol-3-yl)imidazo[1,2-c]pyridine]",–,–
100 to 1000 nM,50 to 100 nM,"Cc1c(F)ccc(-c2nc3n(c2-c2ccc4ncsc4c2)CCC3)c1F [Compound 281, 6-(2-(2,4-difluoro-3-methylphenyl)-6,7-dihydro-5H-pyrrolo[1,2-a]imidazol-3-yl)benzo[d]thiazol]",–,–
> 1000 nM,> 1000 nM,"Cc1cc(-c2nc3n(c2-c2ccc4ncccc4c2)CCC3)cc(C)c1Cl [Compound 246, 6-(2-(4-chloro-3,5-dimethylphenyl)-6,7-dihydro-5H-pyrrolo[1,2-a]imidazol-3-yl)quinoline]",–,–
50 to 100 nM,< 50 nM,"Fc1ccc(-c2nc3occn3c2-c2ccc3nccn3c2)cc1 [Compound 129, 6-(4-fluorophenyl)-5-(imidazo[1,2-a]pyridin-6-yl)imidazo[2,1-b]oxazole]",–,–
< 50 nM,< 50 nM,"Fc1cc(F)c(-c2nc3n(c2-c2ccc4nccn4c2)CCN3)cc1F [Compound 108, 6-(6-(2,4,5-trifluorophenyl)-2,3-dihydro-1H-imidazo[1,2-a]imidazol-5-yl)imidazo[1,2-a]pyridine]",–,–
> 1000 nM,> 1000 nM,Cc1ccc(-c2nc3n(c2-c2ccc4nccn4c2)CCC3)c(F)c1F [Compound 27],–,–
> 1000 nM,> 1000 nM,"Fc1cccc(F)c1-c1nc2n(c1-c1ccc3[nH]ncc3c1)CCC2 [Compound 212, 5-(2-(2,6-difluorophenyl)-6,7-dihydro-5H-pyrrolo[1,2-a]imidazol-3-yl)-1H-indazole]",–,–
